Laboratory results published in US5093475A (priority 1989, dated 1992).
Where a name gives a salt, the structure may show the parent alone. Marks after values point to notes of the source that are not given here.

Experiments:
[1] = Rate of reaction of the 2-iminothiolanes with glycine, coupled with DTNB, 412nm; assay type: physicochemical; conditions: 160 mM glycine, 0.5 mM DTNB, PBS pH 7.2; 25° C.
Method: b. The rate of reaction of the 2-iminothiolanes with 160 mM glycine in PBS (pH 7.2), monitored by coupling the reaction with 0.5 mM DTNB and following the change in absorbance at 412nm.

[2] = Thorpe et al., Cancer Res. 47:5924-5931, 1987; cited from earlier work
[3] = Hydrolysis of the 2-iminothiolane rings in PBS (pH 7.2), monitored at 248nm; assay type: physicochemical; conditions: 25° C.
Excerpt: a. The rate of hydrolysis of the 2-iminothiolane rings in PBS (pH 7.2), monitored at 248nm.

[4] = Glutathione-induced TNB release from 791/iminothiolane/TNB (disulfide stability); assay type: physicochemical; conditions: for Reaction rate, TNB, k × 10^5 (initial rate of TNB release from 791/linker/TNB): ca. 10 μM protein-S-S-TNB, 200 μM glutathione, PBS, 0.5 mM EDTA, pH 7.25, 25° C.; for Increase in Disulfide Stability Relative to: 2IT / Increase in Disulfide Stability Relative to: SPDP: ratio of TNB release rate constants; for Increase in Disulfide Stability Relative to: SPDP: vs 791/SPDP/TNB
Method: d. The initial rate of TNB release from 791/iminothiolane/TNB induced by glutathione. Samples contained ca. 10 μM of protein-S-S-TNB and 200 μM of glutathione in PBS containing 0.5 mM EDTA, pH 7.25, and were monitored at 412nm. FIG. 1 presents the results graphically.
The relative increase in disulfide stability was also compared to 791/SPDP/TNB, and was determined as for 2IT.
791/SPDP/TNB was prepared by derivatizing 791 mAb with SPDP following conventional procedures and conditions, removing any byproducts by gel filtration, releasing the PDP group with 1 mM DTT, and then reacting the liberated sulfhydryl with DTNB. Following gel filtration, the rate of TNB release was measured as in Example 19d above.

791 mAb = assay: Rate of reaction of the 2-iminothiolanes with 791 mAb, coupled with DTNB, 412nm; conditions: 0.5 mM 2-iminothiolane, 20 μM 791 mAb, 2.5 mM DTNB, pH 7.5; 25° C.
Method: c. The rate of reaction of the 2-iminothiolanes (0.5 mM) with 791 mAb (20 μM), as monitored by coupling the reaction with 2.5 mM DTNB in 0.1 M NaPO4, 0.1 M NaCl, pH 7.5, and monitoring the change in absorbance at 412nm.

[5] = cited from earlier work

Q: With `Cl.N=C1CCCS1` [Compound 2IT, 2-iminothiolane hydrochloride, reference compound] as the molecule, how does the “Reaction rate, Glycine, k × 10^3” value [1] read?
A: The value was 5.3 s^-1 (k × 10^3).

Q: What about the “stability of disulfide bond in vivo, in words” value (shortened to “stability of disulfide bond”) [2] of the same molecule?
A: The value was “unstable in vivo”.

Q: What about the “Reaction rate, Hydrolysis” value [3] of the same molecule?
A: Its value is 10.2 %/hr.

Q: What about the “rate constant for unsubstituted 2-iminothiolane” value ([4]; TNB release from 791/linker/TNB by glutathione) of the same molecule?
A: The value was 9.42×10^-3.

Q: And the “Reaction rate, TNB, k × 10^5 (initial rate of TNB release from 791/linker/TNB)” value [4]?
A: The value was 942.0 s^-1 (k × 10^5).

Q: What about the “Increase in Disulfide Stability Relative to: 2IT” value [4] of the same molecule?
A: The value was 1.0.

Q: And the “Increase in Disulfide Stability Relative to: SPDP” value [4]?
A: Its value is 0.3.

Q: What about the “Reaction rate, 791, k × 10^5” value (791 mAb) of the same molecule?
A: The value was 5.0 s^-1 (k × 10^5).

Q: With `CC(SS(=O)(=O)O)c1ccc(C(=O)ON2C(=O)CCC2=O)cc1` (stereo not drawn) [SMBT, sodium S-4-succinimidyloxycarbonyl-α-methyl benzyl thiosulfate] as the molecule, how does the “solubility in water, in words (background)” value [5] read?
A: Its value is “low solubility in water”.

Q: What about the “stability of disulfide bond” value [2] of the same molecule?
A: The value was “appear to have more stable disulfide linkages in vivo”.

Q: Which results are given for `CC(SSc1ccccn1)c1ccc(C(=O)ON2C(=O)CCC2=O)cc1` (stereo not drawn) [SMPT, 4-succinimidyloxycarbonyl-α-methyl-α-(2-pyridyldithio)-toluene]?
A: solubility in water, in words (background) [5]: low solubility in water; stability of disulfide bond in vivo, in words [2]: appear to have more stable disulfide linkages in vivo

Q: With `O=C(CCSSc1ccccn1)ON1C(=O)CCC1=O` [SPDP, N-succinimidyl-3-(2-pyridyldithio)propionate, reference compound] as the molecule, how does the “stability of disulfide bond” value [2] read?
A: Its value is “unstable in vivo”.

Q: And the “Increase in Disulfide Stability Relative to: 2IT” value [4]?
A: Its value is 3.6.

Q: What about the “Increase in Disulfide Stability Relative to: SPDP” value [4] of the same molecule?
A: Its value is 1.0.

Q: Which “Reaction rate, Glycine, k × 10^3” value [1] does the source give for `CC1(C)CCC(=N)S1.Cl` [dimethyl-2IT, 5,5-Dimethyl-2-iminothiolane hydrochloride] here?
A: Its value is 3.5 s^-1 (k × 10^3).

Q: What about the “Reaction rate, Hydrolysis” value [3] of the same molecule?
A: Its value is 6.9 %/hr.

Q: What about the “Reaction rate, TNB, k × 10^5 (initial rate of TNB release from 791/linker/TNB)” value [4] of the same molecule?
A: The value was 0.13 s^-1 (k × 10^5).

Q: And the “Increase in Disulfide Stability Relative to: 2IT” value [4]?
A: The value was 7246.0.

Q: What about the “Increase in Disulfide Stability Relative to: SPDP” value [4] of the same molecule?
A: The value was 2046.0.

Q: What about the “Reaction rate, 791, k × 10^5” value (791 mAb) of the same molecule?
A: Its value is 4.6 s^-1 (k × 10^5).

Q: What does the source list for `CC1CCC(=N)S1.Cl` (stereo not drawn) [methyl-2IT, 5-Methyl-2-iminothiolane hydrochloride]?
A: Reaction rate, Glycine, k × 10^3 [1]: 4.8 s^-1 (k × 10^3); Reaction rate, Hydrolysis [3]: 5.4 %/hr; Reaction rate, TNB, k × 10^5 (initial rate of TNB release from 791/linker/TNB) [4]: 75.3 s^-1 (k × 10^5); Increase in Disulfide Stability Relative to: 2IT [4]: 12.5; Increase in Disulfide Stability Relative to: SPDP [4]: 3.5; Reaction rate, 791, k × 10^5 (791 mAb): 4.0 s^-1 (k × 10^5)

Q: What does the source list for `Cl.N=C1CCC(c2ccccc2)S1` (stereo not drawn) [phenyl-2IT, 5-Phenyl-2-iminothiolane hydrochloride]?
A: Reaction rate, Glycine, k × 10^3 [1]: 5.2 s^-1 (k × 10^3); Reaction rate, Hydrolysis [3]: 1.5 %/hr; Reaction rate, TNB, k × 10^5 (initial rate of TNB release from 791/linker/TNB) [4]: 45.8 s^-1 (k × 10^5); Increase in Disulfide Stability Relative to: 2IT [4]: 20.6; Increase in Disulfide Stability Relative to: SPDP [4]: 5.8; Reaction rate, 791, k × 10^5 (791 mAb): 8.8 s^-1 (k × 10^5)

Q: What does the source list for `N=C1CC2CCCCC2S1` (stereo not drawn) [ring-2IT, hydrochloride]?
A: Reaction rate, Glycine, k × 10^3 [1]: 3.4 s^-1 (k × 10^3); Reaction rate, Hydrolysis [3]: 13.4 %/hr; Reaction rate, TNB, k × 10^5 (initial rate of TNB release from 791/linker/TNB) [4]: 82.1 s^-1 (k × 10^5); Increase in Disulfide Stability Relative to: 2IT [4]: 11.5; Increase in Disulfide Stability Relative to: SPDP [4]: 3.2; Reaction rate, 791, k × 10^5 (791 mAb): 5.6 s^-1 (k × 10^5)

Q: What does the source list for `Cl.N=C1CCC2(CCCCC2)S1` [spiro-2IT, 2-Imino-1-thiaspiro[4.5]decane hydrochloride]?
A: Reaction rate, Glycine, k × 10^3 [1]: 3.0 s^-1 (k × 10^3); Reaction rate, Hydrolysis [3]: 5.6 %/hr; Reaction rate, TNB, k × 10^5 (initial rate of TNB release from 791/linker/TNB) [4]: 0.11 s^-1 (k × 10^5); Increase in Disulfide Stability Relative to: 2IT [4]: 8564.0; Increase in Disulfide Stability Relative to: SPDP [4]: 2418.0; Reaction rate, 791, k × 10^5 (791 mAb): 4.6 s^-1 (k × 10^5)

Q: What does the source list for `CC(C)(C)C1CCC(=N)S1.Cl` (stereo not drawn) [t-butyl-2IT, 5-t-Butyl-2-iminothiolane hydrochloride]?
A: Reaction rate, Glycine, k × 10^3 [1]: 4.4 s^-1 (k × 10^3); Reaction rate, Hydrolysis [3]: 6.1 %/hr; Reaction rate, TNB, k × 10^5 (initial rate of TNB release from 791/linker/TNB) [4]: 16.4 s^-1 (k × 10^5); Increase in Disulfide Stability Relative to: 2IT [4]: 57.4; Increase in Disulfide Stability Relative to: SPDP [4]: 16.2; Reaction rate, 791, k × 10^5 (791 mAb): 7.4 s^-1 (k × 10^5)
